# Reference: patent US20060183794A1, “Drug composition containing nf-kb inhibitor” (priority 2002, published 2006)
# Molecular target: NF-κB (Homo sapiens, UniProt P19838+Q04206)
# Assay: 6 kB-Luc reporter assay of NF-κB transcription in multiple myeloma cell lines
# Type: cell-based
# Design: endogenous in cells; host or cells: MM cell lines KMM1, RPMI8226, U266
# Details: 5 μg/ml, 12-hour treatment; compared with non-treated cells
# Experimental: Next, the inhibitory effect on activation of NF-κB was investigated using the reporter assay. First, 6 kB-Luc plasmid was introduced by transfection into the MM cell lines, KMM1, RPMI8226, and U266 (transfected on a scale of a 2×10^5 cells/transfection using DMRIE-C (Invitrogen)) After 12 hours, 12-hour treatment of cells with 5 μg/ml DHM2EQ was started and the suppressive effect of DHMEQ on the transcription by NF-κB was examined. […] The suppressive effect of DHMEQ on transcription by NF-κB was therefore indicated.
# NF-κB, sequence (Q04206 whole entry): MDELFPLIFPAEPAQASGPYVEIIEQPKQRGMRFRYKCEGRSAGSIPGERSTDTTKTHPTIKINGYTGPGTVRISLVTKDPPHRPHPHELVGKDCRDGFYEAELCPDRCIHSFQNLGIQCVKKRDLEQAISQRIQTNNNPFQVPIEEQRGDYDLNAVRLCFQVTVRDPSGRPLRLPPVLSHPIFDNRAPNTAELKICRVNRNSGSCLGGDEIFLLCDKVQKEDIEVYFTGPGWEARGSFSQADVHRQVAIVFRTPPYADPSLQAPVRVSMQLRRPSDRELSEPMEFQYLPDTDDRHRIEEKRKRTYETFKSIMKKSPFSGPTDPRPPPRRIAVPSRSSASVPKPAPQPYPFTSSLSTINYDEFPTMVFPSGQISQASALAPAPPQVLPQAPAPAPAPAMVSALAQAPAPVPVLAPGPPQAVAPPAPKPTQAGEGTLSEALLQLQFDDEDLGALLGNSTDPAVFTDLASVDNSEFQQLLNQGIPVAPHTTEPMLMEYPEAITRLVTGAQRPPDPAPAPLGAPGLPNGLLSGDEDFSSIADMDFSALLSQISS
# NF-κB, sequence (P19838 1-433 limits assumed): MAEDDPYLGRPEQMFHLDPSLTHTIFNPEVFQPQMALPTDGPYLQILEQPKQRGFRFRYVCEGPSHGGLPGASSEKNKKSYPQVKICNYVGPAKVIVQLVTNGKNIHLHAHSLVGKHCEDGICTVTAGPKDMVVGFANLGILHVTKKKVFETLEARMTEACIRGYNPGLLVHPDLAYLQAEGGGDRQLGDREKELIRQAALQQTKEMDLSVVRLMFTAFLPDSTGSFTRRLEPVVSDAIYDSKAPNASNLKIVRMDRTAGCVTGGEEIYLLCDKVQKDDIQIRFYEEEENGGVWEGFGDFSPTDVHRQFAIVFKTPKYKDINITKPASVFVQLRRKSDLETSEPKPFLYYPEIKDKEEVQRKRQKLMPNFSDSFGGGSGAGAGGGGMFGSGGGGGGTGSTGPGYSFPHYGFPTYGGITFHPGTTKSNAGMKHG
compound,measurement,value
"O=C(NC1=CC(=O)C2OC2C1O)c1ccccc1O (stereo not shown) [DHMEQ, 5,6-epoxy-4-hydroxy-3-salicyloylamino-2-cyclohexenone]",transcription by NF-κB suppressed by (reporter assay),about 50%
